# Data: the supplement of paper PMC10627819
# Assays:
# B. subtilis 168 = assay: Bliss interaction score (quartile over a dose matrix) (fitness difference); higher = more antagonism (negative = synergy)
# Procedure, shortened: (§1)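 Quartiles summarise the Bliss score over technical, biological and donor/recipient replicates, where the score is observed minus expected fitness under a product model. Expected fitness uses single-drug values inferred from combination data. Fitness is OD595 at entry into stationary phase over the plate's robust no-drug mean, capped at 1.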
# S. aureus Newman [1] = assay: as above
# Procedure, shortened: as §1
# S. pneumoniae D39V = assay: as above
# Procedure, shortened: as §1
# S. aureus DSM 20231 [2] = assay: as above
# Procedure, shortened: as §1
# S. aureus DSM 20231 [3] = assay: fitness (endpoint OD595 vs no drug) (fraction); higher = more growth
# Procedure, shortened: (§2)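 In 384-well plates at 37 °C, cultures began at OD595 0.01 in 30 µl, with 55 µl used for S. pneumoniae. OD595 readings every 30 min for 14 h were corrected by the first reading. Fitness divides the stationary-phase transition optical density by the robust mean of no-drug control wells. The result is capped at 1.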
# S. aureus Newman [4] = assay: as above
# Procedure, shortened: as §2
# [5] = first compound 0.75 µg/mL, partner 0.625 µg/mL
# [6] = first compound 0.75 µg/mL, partner 1.25 µg/mL
# [7] = first compound 0.75 µg/mL, partner 2.5 µg/mL
# [8] = first compound 1.5 µg/mL, partner 0.625 µg/mL
# [9] = first compound 1.5 µg/mL, partner 1.25 µg/mL
# [10] = first compound 1.5 µg/mL, partner 2.5 µg/mL
# [11] = first compound 3 µg/mL, partner 0.625 µg/mL
# [12] = first compound 3 µg/mL, partner 1.25 µg/mL
# [13] = first compound 0.75 µg/mL, partner 12.5 µg/mL
# [14] = first compound 0.75 µg/mL, partner 25 µg/mL
# [15] = first compound 0.75 µg/mL, partner 50 µg/mL
# [16] = first compound 1.5 µg/mL, partner 12.5 µg/mL
# [17] = first compound 1.5 µg/mL, partner 50 µg/mL
# [18] = first compound 3 µg/mL, partner 12.5 µg/mL
# 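Throughout, for Bliss interaction score (quartile over a dose matrix): first quartile when negative (synergy) and third quartile when positive (antagonism).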
structure (smiles),measurement,setting,value
O=C(N[C@H](CO)[C@H](O)c1ccc([N+](=O)[O-])cc1)C(Cl)Cl [Chloramphenicol] + CN(C)C(=O)C(CCN1CCC(O)(c2ccc(Cl)cc2)CC1)(c1ccccc1)c1ccccc1 [Loperamide],Bliss interaction score,B. subtilis 168,-0.18
same,Bliss interaction score,S. aureus Newman [1],-0.0555
same,Bliss interaction score,S. pneumoniae D39V,0.146
O=C(N[C@H](CO)[C@H](O)c1ccc([N+](=O)[O-])cc1)C(Cl)Cl [Chloramphenicol] + CO[C@H]1/C=C/O[C@@]2(C)Oc3c(C)c(O)c4c(O)c(c(/C=N/N5CCN(C)CC5)c(O)c4c3C2=O)NC(=O)/C(C)=C\C=C\[C@H](C)[C@H](O)[C@@H](C)[C@@H](O)[C@@H](C)[C@H](OC(C)=O)[C@@H]1C [Rifampicin],Bliss interaction score,S. aureus DSM 20231 [2],0.0582
same,Bliss interaction score,S. aureus Newman [1],0.0185
same,Bliss interaction score,S. pneumoniae D39V,0.069
O=C(N[C@H](CO)[C@H](O)c1ccc([N+](=O)[O-])cc1)C(Cl)Cl [Chloramphenicol] + COc1cccc2c1C(=O)c1c(O)c3c(c(O)c1C2=O)C[C@@](O)(C(=O)CO)C[C@@H]3O[C@H]1C[C@H](N)[C@H](O)[C@H](C)O1 [Doxorubicin],fitness,S. aureus DSM 20231 [3]; [5],0.646
same,fitness,S. aureus DSM 20231 [3]; [6],0.698
same,fitness,S. aureus DSM 20231 [3]; [7],0.663
same,fitness,S. aureus DSM 20231 [3]; [8],0.572
same,fitness,S. aureus DSM 20231 [3]; [9],0.569
same,fitness,S. aureus DSM 20231 [3]; [10],0.525
same,fitness,S. aureus DSM 20231 [3]; [11],0.118
same,fitness,S. aureus DSM 20231 [3]; [12],0.121
same,fitness,S. aureus Newman [4]; [5],0.676
same,fitness,S. aureus Newman [4]; [6],0.72
same,fitness,S. aureus Newman [4]; [7],0.685
same,fitness,S. aureus Newman [4]; [8],0.564
same,fitness,S. aureus Newman [4]; [9],0.562
same,fitness,S. aureus Newman [4]; [10],0.579
same,fitness,S. aureus Newman [4]; [11],0.326
same,fitness,S. aureus Newman [4]; [12],0.291
same,Bliss interaction score,B. subtilis 168,-0.0604
same,Bliss interaction score,S. aureus Newman [1],0.132
same,Bliss interaction score,S. pneumoniae D39V,-0.127
O=C(N[C@H](CO)[C@H](O)c1ccc([N+](=O)[O-])cc1)C(Cl)Cl [Chloramphenicol] + C[C@@H](O)[C@H]1C(=O)N2C(C(=O)O)=C(SCCNC=N)C[C@H]12 [Imipenem],Bliss interaction score,S. aureus DSM 20231 [2],0.0442
same,Bliss interaction score,S. aureus Newman [1],-0.0316
same,Bliss interaction score,S. pneumoniae D39V,-0.0662
O=C(N[C@H](CO)[C@H](O)c1ccc([N+](=O)[O-])cc1)C(Cl)Cl [Chloramphenicol] + Cc1ncc([N+](=O)[O-])n1CCO [Metronidazole],fitness,S. aureus DSM 20231 [3]; [5],0.775
same,fitness,S. aureus DSM 20231 [3]; [6],0.736
same,fitness,S. aureus DSM 20231 [3]; [7],0.755
same,fitness,S. aureus Newman [4]; [5],0.796
same,fitness,"S. aureus Newman [4]; first compound 0.75 µg/mL, partner 0.781 µg/mL",0.789
same,fitness,S. aureus Newman [4]; [6],0.819
same,fitness,"S. aureus Newman [4]; first compound 0.75 µg/mL, partner 1.562 µg/mL",0.768
same,fitness,S. aureus Newman [4]; [7],0.853
same,fitness,"S. aureus Newman [4]; first compound 0.75 µg/mL, partner 3.124 µg/mL",0.752
same,fitness,S. aureus Newman [4]; [8],0.555
same,fitness,"S. aureus Newman [4]; first compound 1.5 µg/mL, partner 0.781 µg/mL",0.539
same,fitness,S. aureus Newman [4]; [9],0.573
same,fitness,"S. aureus Newman [4]; first compound 1.5 µg/mL, partner 1.562 µg/mL",0.527
same,fitness,S. aureus Newman [4]; [10],0.564
same,fitness,"S. aureus Newman [4]; first compound 1.5 µg/mL, partner 3.124 µg/mL",0.521
same,fitness,S. aureus Newman [4]; [11],0.159
same,fitness,S. aureus Newman [4]; [12],0.167
same,fitness,"S. aureus Newman [4]; first compound 3 µg/mL, partner 1.562 µg/mL",0.172
same,fitness,"S. aureus Newman [4]; first compound 3 µg/mL, partner 3.124 µg/mL",0.231
same,Bliss interaction score,B. subtilis 168,0.0423
same,Bliss interaction score,S. aureus Newman [1],-0.07
same,Bliss interaction score,S. pneumoniae D39V,0.0867
O=C(N[C@H](CO)[C@H](O)c1ccc([N+](=O)[O-])cc1)C(Cl)Cl [Chloramphenicol] + O=C1CN(/N=C/c2ccc([N+](=O)[O-])o2)C(=O)N1 [Nitrofurantoin],Bliss interaction score,S. aureus DSM 20231 [2],-0.0404
same,Bliss interaction score,S. aureus Newman [1],-0.0842
same,Bliss interaction score,S. pneumoniae D39V,-0.157
O=C(N[C@H](CO)[C@H](O)c1ccc([N+](=O)[O-])cc1)C(Cl)Cl [Chloramphenicol] + O=C(O[C@@H]1Cc2c(O)cc(O)cc2O[C@@H]1c1cc(O)c(O)c(O)c1)c1cc(O)c(O)c(O)c1 [EGCG],fitness,S. aureus DSM 20231 [3]; [13],0.653
same,fitness,S. aureus DSM 20231 [3]; [14],0.646
same,fitness,S. aureus DSM 20231 [3]; [15],0.669
same,fitness,S. aureus DSM 20231 [3]; [16],0.56
same,fitness,"S. aureus DSM 20231 [3]; first compound 1.5 µg/mL, partner 25 µg/mL",0.572
same,fitness,S. aureus DSM 20231 [3]; [17],0.494
same,fitness,S. aureus DSM 20231 [3]; [18],0.15
same,fitness,"S. aureus DSM 20231 [3]; first compound 3 µg/mL, partner 25 µg/mL",0.136
same,fitness,"S. aureus DSM 20231 [3]; first compound 3 µg/mL, partner 50 µg/mL",0.0905
same,fitness,S. aureus Newman [4]; [13],0.649
same,fitness,S. aureus Newman [4]; [14],0.699
same,fitness,S. aureus Newman [4]; [15],0.699
same,fitness,S. aureus Newman [4]; [16],0.602
same,fitness,S. aureus Newman [4]; [17],0.509
same,fitness,S. aureus Newman [4]; [18],0.189
same,Bliss interaction score,B. subtilis 168,0.103
same,Bliss interaction score,S. aureus DSM 20231 [2],0.0831
same,Bliss interaction score,S. pneumoniae D39V,-0.0762
